Test results taken from patent publication US6767991B1, “Hepatitis C inhibitor peptides” (priority 1997, dated 2004).
Read-outs that look alike come from different tables or passages of the source. Where a SMILES comes first, the peptide text is derived from it. [ ]: non-standard residue; d: D form. The star is where a group is joined. Acca(2-Et,1R,2R) = CC[C@@H]1C[C@]1(N)C(=O)O; CH2(1-naphthyl) = c1ccc2c(C*)cccc2c1; Hyp = O=C(O)[C@@H]1C[C@@H](O)CN1; Chg = N[C@H](C(=O)O)C1CCCCC1; Nva = CCC[C@H](N)C(=O)O; X1 = c1ccc2cc(C*)ccc2c1; Ac3c = NC1(C(=O)O)CC1; Bn = c1ccc(C*)cc1

What was measured:
human leukocyte elastase = target: T1, human leukocyte elastase (Homo sapiens, UniProt P08246); assay: Specificity assay: human leukocyte elastase; assay type: biochemical
T1 sequence (P08246 30-267): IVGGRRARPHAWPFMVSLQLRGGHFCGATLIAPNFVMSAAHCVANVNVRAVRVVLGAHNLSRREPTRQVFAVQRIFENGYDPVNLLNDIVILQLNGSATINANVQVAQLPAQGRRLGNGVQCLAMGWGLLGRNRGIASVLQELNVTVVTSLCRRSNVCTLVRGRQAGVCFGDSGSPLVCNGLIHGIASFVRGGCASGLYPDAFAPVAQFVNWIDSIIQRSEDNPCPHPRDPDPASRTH
Procedure: (§1) The final conditions for each assay were as follows:
[100 μM Succ-AAPF-pNA [SEQ. ID NO.
(§2) The percentage of inhibition was calculated using the formula:
(§3) [1-((UVinn-UVblank)/(UVctl-UVblank))]×100

[1] = target: porcine pancreatic elastase (Sus scrofa, UniProt P00772); assay: biochemical
Procedure: (§4) The specificity of the compounds was determined against a variety of serine proteases: human leukocyte elastase, porcine pancreatic elastase and bovine pancreatic α-chymotrypsin and one cysteine protease: human liver cathepsin B. In all cases a 96-well plate format protocol using a colorimetric p-nitroaniline (pNA) substrate specific for each enzyme was used. Each assay included a 1 h enzyme-inhibitor pre-incubation at 30° C. followed by addition of substrate and hydrolysis to ≈30% conversion as measured on a UV Thermomax® microplate reader. Substrate concentrations were kept as low as possible compared to KM to reduce substrate competition. Compound concentrations varied from 300 to 0.06 μM depending on their potency. The final conditions for each assay were as follows:
(§5) 50 mM Tris-HCl pH 8, 0.5 M Na2SO4, 50 mM NaCl, 0.1 mM EDTA, 3% DMSO, 0.01% Tween-20 with;
[100 μM Succ-AAPF-pNA [SEQ. […] 7] and 250 pM α-chymotrypsin], [133 μM Succ-AAA-pNA and 8 nM porcine elastase], [133 μM Succ-AAV-pNA and 8 nM leukocyte elastase]; or
A representative example is summarized below for porcine pancreatic elastase: In a polystyrene flat-bottom 96-well plate were added using a Biomek liquid handler (Beckman):
40 μL of assay buffer (50 mM Tris-HCl pH 8, 50 mM NaCl, 0.1 mM EDTA);
20 μL of enzyme solution (50 mM Tris-HCl pH 8, 50 mM NaCl, 0.1 mM EDTA, 0.02% Tween-20, 40 nM porcine pancreatic elastase); and
20 μL of inhibitor solution (50 mM Tris-HCl, pH 8, 50 mM NaCl, 0.1 mM EDTA, 0.02% Tween-20, 1.5 mM-0.3 μM inhibitor, 15% v/v DMSO).
After 60 min pre-incubation at 30° C., 20 μL of substrate solution (50 mM Tris/HCl, pH 8, 0.5 M Na2SO4, 50 mM NaCl, 0.1 mM EDTA, 665 μM Succ-AAA-pNA) were added to each well and the reaction was further incubated at 30° C. for 60 min after which time the absorbance was read on the UV Thermomax® plate reader. Rows of wells were allocated for controls (no inhibitor) and for blanks (no inhibitor and no enzyme). The sequential 2-fold dilutions of the inhibitor solution were performed on a separate plate by the liquid handler using 50 mM Tris-HCl pH 8, 50 mM NaCl, 0.1 mM EDTA, 0.02% Tween-20, 15% DMSO. All other specificity assays were performed in a similar fashion.
A non-linear curve fit with the Hill model was applied to the inhibition-concentration data, and the 50% effective concentration (IC50) was calculated by the use of SAS software (Statistical Software System; SAS Institute, Inc., Cary, N.C.).

[2] = target: T2, HCV NS3 protease type 1b/NS4A cofactor peptide (Hepatitis C virus genotype 1b, UniProt P26663); assay: Recombinant HCV NS3 protease/NS4A cofactor peptide radiometric assay; assay type: biochemical, HCV genotype 1b
T2 construct: recombinant HCV NS3 protease (amino acid 1027 to 1206) was cloned in the pET11d bacterial expression vector; made in house; host or cells: E. coli BL21(DE3)pLysS

human liver cathepsin B = target: T3, human liver cathepsin B (Homo sapiens, UniProt P07858); assay: Specificity assay: human liver cathepsin B; assay type: biochemical
T3 construct: from tissue; host or cells: human liver
Procedure: as §1
[100 mM NaHPO4 pH 6, 0.1 mM EDTA, 3% DMSO, 1 mM TCEP, 0.01% Tween-20, 30 μM Z-FR-pNA and 5 nM cathepsin B (tile stock enzyme was activated in buffer containing 20 mM TCEP before use)].
as §2, §3

[3] = target: bovine pancreatic α-chymotrypsin (Bos taurus, UniProt P00766); assay: biochemical
Procedure: as §4, §5
After 60 min pre-incubation at 30° C., 20 μL of substrate solution (50 mM Tris/HCl, pH 8, 0.5 M Na2SO4, 50 mM NaCl, 0.1 mM EDTA, 665 μM Succ-AAA-pNA) were added to each well and the reaction was further incubated at 30° C. for 60 min after which time the absorbance was read on the UV Thermomax® plate reader. Rows of wells were allocated for controls (no inhibitor) and for blanks (no inhibitor and no enzyme). […]
The percentage of inhibition was calculated using the formula: […]

NS3 protease = NS3 protease (Hepatitis C virus genotype 1b, UniProt P26663); assay: Inhibition of NS3 protease by N-terminal cleavage product (assay not specified); assay type: biochemical, HCV; details: N-terminal cleavage product of an analog of a natural substrate
[4] = Table 2, human leukocyte elastase, read-out: HLE
[5] = IC50, Table 2, unmarked values: NS3 protease/NS4A cofactor peptide radiometric assay

T2 sequence (P26663 1027-1206, other chains not shown): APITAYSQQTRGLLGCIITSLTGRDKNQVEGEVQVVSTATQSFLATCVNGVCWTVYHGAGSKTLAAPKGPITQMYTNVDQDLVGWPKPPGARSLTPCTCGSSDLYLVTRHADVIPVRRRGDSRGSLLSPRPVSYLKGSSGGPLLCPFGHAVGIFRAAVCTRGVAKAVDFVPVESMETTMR
Sequence of porcine pancreatic elastase (P00772 27-266): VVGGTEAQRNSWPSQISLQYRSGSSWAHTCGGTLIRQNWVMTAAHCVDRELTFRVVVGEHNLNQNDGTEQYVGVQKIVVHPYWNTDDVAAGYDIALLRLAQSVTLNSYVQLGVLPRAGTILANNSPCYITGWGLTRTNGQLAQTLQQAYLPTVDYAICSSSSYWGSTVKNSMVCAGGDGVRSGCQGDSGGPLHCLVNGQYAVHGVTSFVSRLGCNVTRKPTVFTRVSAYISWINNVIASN
Sequence of NS3 protease (P26663 1027-1208): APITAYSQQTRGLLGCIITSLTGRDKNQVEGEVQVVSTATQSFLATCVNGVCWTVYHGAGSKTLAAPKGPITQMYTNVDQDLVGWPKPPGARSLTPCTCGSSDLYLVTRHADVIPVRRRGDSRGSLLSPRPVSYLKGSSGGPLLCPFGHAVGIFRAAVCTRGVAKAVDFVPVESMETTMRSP

Row | Compound | IC50 (human leukocyte elastase) [µM] | IC50 [1] [µM] | IC50 (human leukocyte elastase; [4]) [µM] | IC50 [2, 5] [µM] | also measured
1 | CCC[C@H](NC(=O)[C@@H]1CCCN1C(=O)[C@@H](NC(=O)[C@@H](NC(=O)[C@H](CC(=O)O)NC(=O)[C@H](CC(=O)O)NC(C)=O)[C@@H](C)CC)C(C)C)C(=O)O [compound 123] | > 300 | > 300 | – | – | IC50 ([2]; Table 1, unmarked values: NS3 protease/NS4A cofactor peptide radiometric assay, read-out: IC50): 220 µM
2 | CCC[C@H](NC(=O)[C@@H]1C[C@@H](OCc2ccccc2)CN1C(=O)[C@@H](NC(=O)[C@@H](NC(=O)[C@@H](CCC(=O)O)NC(=O)[C@H](CC(=O)O)NC(C)=O)[C@@H](C)CC)C(C)C)C(=O)O [compound 203] (Ac-D[dE]IV[Hyp](Bn)[Nva]-OH; C-terminus assumed) | – | > 300 | > 300 | 0.6 | IC50 (human liver cathepsin B; Table 2, marked **: human liver cathepsin B, read-out: Other (marked **)): > 300 µM
3 | CCC[C@H](NC(=O)[C@@H]1C[C@@H](OCc2ccc3ccccc3c2)CN1C(=O)[C@@H](NC(=O)[C@@H](NC(=O)[C@@H](CCC(=O)O)NC(=O)[C@H](CC(=O)O)NC(C)=O)C1CCCCC1)C(C)C)C(=O)O [compound 214] (Ac-D[dE][Chg]V[Hyp](X1)[Nva]-OH) | > 300 | > 300 | – | – | IC50 [3]: > 300 µM; IC50 (human liver cathepsin B): > 300 µM; IC50 ([2]; Table 2, unmarked values: NS3 protease/NS4A cofactor peptide radiometric assay, read-out: IC50): 0.028 µM
4 | Ac-DDIVPC-OH [Ac-D-D-I-V-P-C-OH] | – | – | – | – | inhibition of NS3 protease (NS3 protease): inhibitory
5 | CC[C@@H]1C[C@]1(NC(=O)[C@@H]1C[C@@H](OCc2cccc3ccccc23)CN1C(=O)[C@@H](NC(=O)[C@@H](NC(=O)[C@H](NC(=O)[C@H](CC(=O)O)NC(C)=O)C(C)C)C1CCCCC1)C(C)C)C(=O)O [compound 521] (Ac-D[dV][Chg]V[Hyp](CH2(1-naphthyl))[Acca(2-Et,1R,2R)]-OH) | > 300 | – | – | – | IC50 ([2]; Table 5, first line of the cell, NS3 protease/NS4A cofactor peptide radiometric assay (Example 38), read-out: IC50): 0.024 µM
6 | CC[C@H](C)[C@H](NC(=O)[C@@H](CCC(=O)O)NC(=O)[C@H](CC(=O)O)NC(C)=O)C(=O)N[C@H](C(=O)N1C[C@H](OCc2ccccc2)C[C@H]1C(=O)NC1(C(=O)O)CC1)C(C)C [compound 212] (Ac-D[dE]IV[Hyp](Bn)[Ac3c]-OH; C-terminus assumed) | – | > 300 | > 300 | 0.21 | –
7 | CC(=O)N[C@H](C(=O)N[C@H](C(=O)N1C[C@H](Oc2ccc(Br)cc2)C[C@H]1C(=O)NC1(C(=O)O)CC1)C(C)C)C1CCCCC1 [compound 238] | – | – | 195 | 27 | –
8 | CC(=O)N[C@@H](CC(=O)O)C(=O)N[C@H](CCC(=O)O)C(=O)N[C@H](C(=O)N[C@H](C(=O)N1C[C@H](OCc2ccccc2)C[C@H]1C(=O)N[C@@H](CS)C(=O)O)C(C)C)C1CCCCC1 [compound 210] (Ac-D[dE][Chg]V[Hyp](Bn)C-OH) | – | > 300 | > 300 | 0.033 | IC50 [3]: > 300 µM
